# Target: T1, SCD1 (Mus musculus, UniProt P13516)
# T1 construct: Mouse liver microsomes, prepared from mice fed a high carbohydrate diet, were a source of the SCD; from tissue; host or cells: mouse liver microsomes (mice fed a high carbohydrate diet)
# T1 sequence (P13516 1-355): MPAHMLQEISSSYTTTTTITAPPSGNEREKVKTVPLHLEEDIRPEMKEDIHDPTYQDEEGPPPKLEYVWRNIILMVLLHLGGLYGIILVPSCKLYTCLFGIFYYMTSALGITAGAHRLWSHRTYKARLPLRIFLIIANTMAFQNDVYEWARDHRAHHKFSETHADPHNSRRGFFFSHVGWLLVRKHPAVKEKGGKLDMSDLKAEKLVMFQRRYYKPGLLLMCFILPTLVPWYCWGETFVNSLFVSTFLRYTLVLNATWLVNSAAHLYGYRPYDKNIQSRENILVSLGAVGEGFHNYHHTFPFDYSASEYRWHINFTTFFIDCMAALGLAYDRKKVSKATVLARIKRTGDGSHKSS
# Test: SCD assay: release of tritiated water from desaturation of 9,10-3H-stearoyl CoA, mouse liver microsomes
# Type: biochemical
# From the text: Stearoyl CoA desaturase activity was monitored by a modification of the acyl carrier protein assay described by B. R. Talamo and K. Bloch in Anal. Biochem. 1968, 29, 300-304. The SCD assay monitors the release of tritiated water from the desaturation of 9,10-^3H-stearoyl CoA.
# Mouse liver microsomes, prepared from mice fed a high carbohydrate diet, were a source of the SCD and cyt b5 and cyt b5 reductase, necessary accessory proteins for the coupled reaction. Reaction mixtures for compound titrations contained 50 mM Tris HCl pH 7.5, 100 mM NaCl, 0.165 mg/ml BSA, 2.4% DMSO, 1 mM NADH, 0.03% T-20, and 300 nM (9,10) ^3H-stearoyl CoA (Perkin-Elmer). Reactions were initiated upon the addition of 4 ug/ml SCD microsomes. Incubations were terminated after 25 minutes at room temperature with cold 6% TCA. After standing 10 minutes at 4 deg C., samples were centrifuged 15 minutes at 4000 rpm to pellet precipitated protein. Supernatants were added to microtiter plates containing suspensions of activated charcoal (Darco G-60, Fisher Scientific) and mixed by inversion. Plates were then centrifuged to separate ^3H—H2O product from charcoal-bound reactants. Supernatants were quantitated in a Perkin Elmer Topcount 384 after solubilization in ScintiSafe Plus 50% (Fisher Scientific).
# Inhibition (%) of SCD activity by compounds was calculated according to the following formula: % Inhibition=100*[1−(CPMsample−CPMblank)/(CPMtotal−CPMblank)]
row,Compound,IC50
1,"O=c1cc(N2CCN(Cc3cc(C(F)(F)F)ccc3C(F)(F)F)CC2)nc[nH]1 [Example 9, 6-[4-(2,5-Bis-trifluoromethyl-benzyl)-piperazin-1-yl]-3H -pyrimidin-4-one]",≤ 1000 nM
2,"COc1ccc(Br)cc1CN1CCN(c2cc(=O)[nH]cn2)CC1 [Example 6, 6-[4-(5-Bromo-2-methoxy-benzyl)-piperazin-1-yl]-3H-pyrimidin-4-one]",≥ 1100 nM
3,"COc1cc(Br)cc(CN2CCN(c3cc(=O)[nH]cn3)CC2)c1O [Example 7, 6-[4-(5-Bromo-2-hydroxy-3-methoxy-benzyl)-piperazin-1-yl]-3H -pyrimidin-4-one]",≤ 1000 nM
4,"O=c1cc(N2CCN(Cc3ccccc3[N+](=O)[O-])CC2)nc[nH]1 [Example 27, 6-[4-(2-Nitro-benzyl)-piperazin-1-yl]-3H-pyrimidin-4-one]",≤ 1000 nM
5,"O=c1cc(N2CCN(Cc3cc(F)ccc3O)CC2)nc[nH]1 [Example 43, 6-[4-(5-Fluoro-2-hydroxy-benzyl)-piperazin-1-yl]-3H -pyrimidin-4-one]",≤ 1000 nM
6,"O=c1cc(N2CCN(Cc3cc(Br)ccc3O)CC2)nc[nH]1 [Example 25, 6-[4-(5-Bromo-2-hydroxy-benzyl)-piperazin-1-yl]-3H -pyrimidin-4-one]",≤ 1000 nM
7,"O=c1cc(N2CCN(Cc3ccc(Cl)c(Cl)c3)CC2)nc[nH]1 [Example 15, 6-[4-(3,4-Dichloro-benzyl)-piperazin-1-yl]-3H-pyrimidin-4-one]",≤ 1000 nM
8,"O=c1cc(N2CCN(Cc3cc(Cl)ccc3O)CC2)nc[nH]1 [Example 46, 6-[4-(5-Chloro-2-hydroxy-benzyl)-piperazin-1-yl]-3H -pyrimidin-4-one]",≤ 1000 nM
9,"O=c1cc(N2CCN(Cc3cc(Cl)cc(Cl)c3O)CC2)nc[nH]1 [Example 24, 6-[4-(3,5-Dichloro-2-hydroxy-benzyl)-piperazin-1-yl]-3H-pyrimidin-4-one]",≤ 1000 nM
10,"O=c1cc(N2CCN(Cc3cccc([N+](=O)[O-])c3)CC2)nc[nH]1 [Example 26, 6-[4-(3-Nitro-benzyl)-piperazin-1-yl]-3H-pyrimidin-4-one]",≥ 1100 nM
11,"Cc1cccc(C)c1CN1CCN(c2cc(=O)[nH]cn2)CC1 [Example 3, 6-[4-(2,6-Dimethyl-benzyl)-piperazin-1-yl]-3H-pyrimidin-4-one]",≤ 1000 nM
12,"N#Cc1cccc(CN2CCN(c3cc(=O)[nH]cn3)CC2)c1 [Example 10, 3-[4-(6-Oxo-1,6-dihydro-pyrimidin-4-yl)-piperazin-1-ylmethyl]-benzonitrile]",≥ 1100 nM
13,"O=c1cc(N2CCN(Cc3ccccc3C(F)(F)F)CC2)nc[nH]1 [Example 8, 6-[4-(2-Trifluoromethyl-benzyl)-piperazin-1-yl]-3H -pyrimidin-4-one]",≤ 1000 nM
14,"O=c1cc(N2CCN(Cc3cccc(Cl)c3)CC2)nc[nH]1 [Example 12, 6-[4-(3-Chloro-benzyl)-piperazin-1-yl]-3H-pyrimidin-4-one]",≤ 1000 nM
15,"O=c1cc(N2CCN(Cc3c(Cl)ccc(Cl)c3Cl)CC2)nc[nH]1 [Example 16, 6-[4-(2,3,6-Trichloro-benzyl)-piperazin-1-yl]-3H-pyrimidin-4-one]",≤ 1000 nM
16,"N#Cc1cc(CN2CCN(c3cc(=O)[nH]cn3)CC2)ccc1F [Example 11, 2-Fluoro-5-[4-(6-oxo-1,6-dihydro-pyrimidin-4-yl) -piperazin-1-ylmethyl]-benzo-nitrile]",≤ 1000 nM
17,"COc1ccc(CN2CCN(c3cc(=O)[nH]cn3)CC2)c(C)c1C [Example 5, 6-[4-(4-Methoxy-2,3-dimethyl-benzyl)-piperazin-1-yl]-3H-pyrimidin-4-one]",≥ 1100 nM
18,"Cc1ccccc1CN1CCN(c2cc(=O)[nH]cn2)CC1 [Example 2, 6-[4-(2-Methyl-benzyl)-piperazin-1-yl]-3H-pyrimidin-4-one]",≤ 1000 nM
19,"O=c1cc(N2CCN(Cc3cccc(Cl)c3Cl)CC2)nc[nH]1 [Example 17, 6-[4-(2,3-Dichloro-benzyl)-piperazin-1-yl]-3H-pyrimidin-4-one]",≤ 1000 nM
20,"O=c1cc(N2CCN(Cc3cccc(Br)c3)CC2)nc[nH]1 [Example 13, 6-[4-(3-Bromo-benzyl)-piperazin-1-yl]-3H-pyrimidin-4-one]",≤ 1000 nM
21,"Cc1cccc(CN2CCN(c3cc(=O)[nH]cn3)CC2)c1 [Example 1, 6-[4-(3-Methyl-benzyl)-piperazin-1-yl]-3H-pyrimidin-4-one]",≤ 1000 nM
22,"O=c1cc(N2CCN(Cc3c(Cl)cccc3Cl)CC2)nc[nH]1 [Example 14, 6-[4-(2,6-Dichloro-benzyl)-piperazin-1-yl]-3H-pyrimidin-4-one]",≥ 1100 nM
23,"O=c1cc(N2CCN(Cc3cc(C(F)(F)F)ccc3Cl)CC2)nc[nH]1 [Example 23, 6-[4-(2-Chloro-5-trifluoromethyl-benzyl)-piperazin-1-yl]-3H-pyrimidin-4-one]",≥ 1100 nM
24,"O=c1cc(N2CCN(Cc3cc(F)ccc3Br)CC2)nc[nH]1 [Example 20, 6-[4-(2-Bromo-5-fluoro-benzyl)-piperazin-1-yl]-3H -pyrimidin-4-one]",≤ 1000 nM

# Continued, values first:
row,IC50,Compound
1,≤ 1000 nM,"Cc1c(Br)cccc1CN1CCN(c2cc(=O)[nH]cn2)CC1 [Example 35, 6-[4-(3-Bromo-2-methyl-benzyl)-piperazin-1-yl]-3H -pyrimidin-4-one]"
2,≤ 1000 nM,"O=c1cc(N2CCN(Cc3cccc(F)c3O)CC2)nc[nH]1 [Example 42, 6-[4-(3-Fluoro-2-hydroxy-benzyl)-piperazin-1-yl]-3H -pyrimidin-4-one]"
3,≥ 1100 nM,"O=c1cc(N2CCN(Cc3cccc4c3OCO4)CC2)nc[nH]1 [Example 37, 6-(4-Benzo[1,3]dioxol-4-ylmethyl-piperazin-1-yl)-3H -pyrimidin-4-one]"
4,≥ 1100 nM,"COc1cc([N+](=O)[O-])cc(CN2CCN(c3cc(=O)[nH]cn3)CC2)c1O [Example 55, 6-[4-(2-Hydroxy-3-methoxy-5-nitro-benzyl)-piperazin-1-yl]-3H-pyrimidin-4-one]"
5,≤ 1000 nM,"Cc1cc(Cl)cc(CN2CCN(c3cc(=O)[nH]cn3)CC2)c1O [Example 47, 6-[4-(5-Chloro-2-hydroxy-3-methyl-benzyl)-piperazin-1-yl]-3H-pyrimidin-4-one]"
6,≤ 1000 nM,"O=c1cc(N2CCN(Cc3cc(Cl)cc(Br)c3O)CC2)nc[nH]1 [Example 50, 6-[4-(3-Bromo-5-chloro-2-hydroxy-benzyl)-piperazin-1-yl]-3H-pyrimidin-4-one]"
7,≤ 1000 nM,"O=c1cc(N2CCN(Cc3cc(OC(F)(F)F)ccc3O)CC2)nc[nH]1 [Example 31, 6-[4-(2-Hydroxy-5-trifluoromethoxy-benzyl)-piperazin-1-yl]-3H -pyrimidin-4-one]"
8,≤ 1000 nM,"O=c1cc(N2CCN(Cc3cc(Cl)ccc3[N+](=O)[O-])CC2)nc[nH]1 [Example 28, 6-[4-(5-Chloro-2-nitro-benzyl)-piperazin-1-yl]-3H -pyrimidin-4-one]"
9,≥ 1100 nM,"O=c1cc(N2CCN(Cc3ccccc3O)CC2)nc[nH]1 [Example 30, 6-[4-(2-Hydroxy-benzyl)-piperazin-1-yl]-3H-pyrimidin-4-one]"
10,≤ 1000 nM,"COc1cc(I)cc(CN2CCN(c3cc(=O)[nH]cn3)CC2)c1O [Example 54, 6-[4-(2-Hydroxy-5-iodo-3-methoxy-benzyl)-piperazin-1-yl]-3H -pyrimidin-4-one]"
11,≥ 1100 nM,"O=c1cc(N2CCN(Cc3ccccc3-c3ccccc3)CC2)nc[nH]1 [Example 36, 6-(4-Biphenyl-2-ylmethyl-piperazin-1-yl)-3H-pyrimidin-4-one]"
